Source: publication PMC8583417, “Evaluation of the Antimicrobial Efficacy of N-Acetyl-L-Cysteine, Rhamnolipids, and Usnic Acid—Novel Approaches to Fight Food-Borne Pathogens” (International Journal of Molecular Sciences, 2021)

Key:
E. coli 683/17 [1] = experiment: MIC for biofilm metabolic activity (MTT reduction assay); assay type: cell-based, Escherichia coli; settings: for MICBM80: ≥80% inhibition, 24 h
Description: (§1) Ten concentrations of NAC, RLs, and UA were tested to determine the minimum inhibitory concentration for planktonic growth, and subsequently, the six highest concentrations were applied on preformed biofilms to evaluate the biofilm eradication ability of the compounds. MIC was defined as the lowest substance concentration able to inhibit at least 80% of microbial growth (MICPC80 for planktonic cells, MICBC80 for further growth of biofilm cells), inhibit 80% of metabolic activity (MICBM80 for biofilm metabolic activity, MICMPB80 for metabolic activity of preformed biofilm), prevent biofilm formation by at least 80% (MICBF80 for biofilm formation), or reduce a preformed biofilm by at least 80% (MICBR80 for biofilm reduction). The results of MICs are summarized in Table 1 (planktonic cells) and Table 2 (biofilm-associated cells).
(§2) The determination of MICs was performed according to Chlumsky et al.. Briefly, 96-well flat-bottomed microtiter plates were inoculated with 75 µL (for biofilm formation) or 100 µL (for preformed biofilm) of bacterial suspension (A625nm 0.08 to 0.1) in technical triplicates and were then carefully mixed with the dilution series of the test substances (24 h cultivation at 25 °C for S. Infantis, 37 °C for other strains) or were directly cultivated to preform biofilms (18 h). For a positive control of bacterial growth, the inoculum was mixed with a pure sterile medium. Furthermore, the sterile medium was included in the plate as a marker of potential microbial contamination. To evaluate planktonic cells growth (MICPC80) and further growth of biofilm cells (MICBC80), the optical density of the content of the microtiter plates was measured spectrophotometrically at 625 nm before and after 24 h (for biofilm formation) of cultivation or before and after additional 20 h incubation with the tested compound (for preformed biofilm). The difference of A625nm was considered as a measure of the ability of cells to grow in the presence of the tested substances. To evaluate the inhibition of biofilm formation (MICBF80) and reduction in preformed biofilms (MICBR80), biomass was quantified using crystal violet staining, and its metabolic activity (MICBM80 and MICMPB80) was estimated by using the MTT (thiazyl tetrazolium bromide, Sigma-Aldrich, USA) reduction assay, both measured spectrophotometrically at 595 nm.
(§3) All inhibitions were calculated using the formula of Chlumsky et al. below (Equation (1)):(1) A625(595)nm inhibition (%)=A625(595)nm (control) – A625(595)nm(natural substance)/A625(595)nm (control)× 100 where A625(595)nm (control) is the absorbance of bacterial suspension/biofilm itself, and A625(595)nm(natural substance) is the absorbance of the bacterial suspension/biofilm with the added natural substance (NAC, RLs, and UA).
(§4) When the minimum inhibitory concentration could not be determined, the MIC was established as >the highest tested concentration for NAC, RLs, and UA.

E. coli 693/17 [2] = experiment: as above; assay type: cell-based, Escherichia coli; settings: for MICBM80: ≥80% inhibition, 24 h
Description: as §1, §2, §3, §4

E. coli 683/17 [3] = experiment: MIC for reduction of preformed biofilm (crystal violet staining); assay type: cell-based, Escherichia coli; settings: for maximal achieved inhibition (MICBR80 not reached), biofilm reduction: preformed biofilm, within tested concentrations; for MICBR80: ≥80% reduction of preformed biofilm (18 h), 20 h with substance
Description: as §1, §2, §3, §4

E. coli 693/17 [4] = experiment: as above; assay type: cell-based, Escherichia coli; settings: for MICBR80: ≥80% reduction of preformed biofilm (18 h), 20 h with substance
Description: as §1, §2, §3, §4

L. monocytogenes 164 = experiment: CLSM analysis, biofilm removal (preformed biofilm); assay type: cell-based, Listeria monocytogenes; settings: for Thickness (µm) MICBM80: substance at its MIC
Description: (§5) Biofilm prevention and removal analyses were performed using previously determined minimum inhibitory and subinhibitory concentrations for metabolic activity (MICBM80, subCBM80; MICMPB80, subCMPB80) of NAC, RLs, and UA specific for each tested strain. Selected concentrations were used to evaluate the inhibition of biofilm formation (biofilm prevention) and the reduction in previously formed biofilms (biofilm removal) for the same set of microorganisms, with the exception of S. Infantis, which was excluded from the analysis due to its inability to form biofilm in the selected microtiter plate. Biofilm prevention and removal were observed using CLSM with specific staining to distinguish between live and membrane-compromised cells. Images were analyzed to evaluate (i). the total volume of the biomass, (ii). ratios of live and membrane-compromised cells, and (iii). to calculate biofilm volume reduction for individual organisms after the respective treatment types. The total biofilm volume was normalized by the area of the well and expressed as an average biofilm thickness. Complete data are provided in Supplementary Materials (Tables S1–S8).
(§6) At first, bacterial suspensions were cultivated in microtiter plates to produce overnight biofilms (18 h). […] cells were then washed out, and the remaining biofilms were further cultivated for an additional 20 h with selected compounds. Following biofilm cultivation, biomass was observed using CLSM with live/membrane-compromised cell staining. Biomass images from biofilm removal treatments were similar to results from biofilm prevention, where biomass was highly diversified across the bacterial species and strains. Visually, biomass images were fairly consistent within the quadruplicates for each tested organism. Non-treated biofilms of S. aureus contained consistent biomass spread across the well (S. aureus 816) or grown around the edges (S. aureus 1241). […] PI staining identified membrane-compromised cells spread across S. aureus 816 biomass and incorporated in the edge of biomass and/or in the central part of the well (Figure 4B,C). […] Membrane-compromised cells appeared contained around the edges (S. aureus 1241), disturbed across the well (in both strains of L. monocytogenes), or in separated biomass in the central part of the well (in both strains of E. coli when treated with the subinhibitory concentration of RLs) (Figure 4D,E).
(§7) For both inhibition and reduction of biofilms, overnight cultures from BHI were diluted in TSB + 1% Glc to reach an absorbance of 0.08 to 0.1 at 625 nm. The inoculum (150 µL) was transferred into wells of the 96-well flat-bottomed Ibidiμ-Plate (Ibidi, Gräfelfing, Germany) and mixed with 150 µL of each of the three tested substances in technical quadruplicates, followed by incubation at 37 °C for 24 h. Simultaneously, the prepared bacterial suspensions were inoculated to an additional microtiter plate (200 µL) and allowed to form biofilm overnight (18 h at 37 °C). After the incubation, the content of the well was drained off, and 200 µL of each of the three tested substances was added to the plate, which was then incubated for an additional 20 h. The used concentrations of the substances represented the subinhibitory and minimum inhibitory concentrations for metabolic activity (subCBM80, MICBM80; subCMPB80, MICMPB80). Both setups contained a positive control of the bacterial growth (inoculum mixed with sterile TSB + 1% Glc medium) and a control monitoring microbial contamination (sterile medium). Non-treated wells were used as a positive control for comparison between non-treated and treated biofilm mass.
(§8) Prior to the imaging, the wells were stained with the LIVE/DEAD® BacLight™ Bacterial Viability Kit (Thermo Fisher Scientific, MA, USA) following the manufacturer’s guidelines and Drago et al.. […]

L. monocytogenes 149 = experiment: CLSM analysis, biofilm removal (preformed biofilm); assay type: cell-based, Listeria monocytogenes; settings: 20 h exposure, mean ± SD; for Thickness (µm) MICBM80: substance at its MIC; for Thickness (µm) subCBM80: substance at subinhibitory concentration
Description: as §5, §6, §7, §8

[5] = preformed biofilm, 20 h exposure, mean ± SD

Compound | maximal achieved inhibition (MICBM80 not reached) (E. coli 683/17 [1]; within tested concentrations) | MICBM80 (E. coli 683/17 [1]) | maximal achieved inhibition (MICBM80 not reached) (E. coli 693/17 [2]; within tested concentrations) | MICBM80 (E. coli 693/17 [2]) | maximal achieved inhibition (MICBR80 not reached), biofilm reduction (E. coli 683/17 [3]) | MICBR80 (E. coli 683/17 [3]) | maximal achieved inhibition (MICBR80 not reached), biofilm reduction (E. coli 693/17 [4]; preformed biofilm, within tested concentrations) | MICBR80 (E. coli 693/17 [4]) | Thickness (µm) MICBM80 (L. monocytogenes 164; [5]) | Thickness (µm) MICBM80 (L. monocytogenes 149) | Thickness (µm) subCBM80 (L. monocytogenes 149) | proportion of membrane-compromised cells (L. monocytogenes 164; 20 h, MIC and subinhibitory concentration) | Thickness (µm) subCBM80 (L. monocytogenes 164; preformed biofilm, 20 h exposure, substance at subinhibitory concentration, mean ± SD)
CC(=O)c1c(O)c(C)c(O)c2c1OC1=CC(=O)C(C(C)=O)C(=O)C12C (single isomer, unassigned; (+)) [UA, (+)-usnic acid] | 27% | > 31.3 µg/mL | 16% | > 31.3 µg/mL | 0% | > 31.3 µg/mL | 0% | > 31.3 µg/mL | 440 ± 60.8 µm | 317 ± 62.3 µm | 276 ± 26.8 µm |  | 
CC(=O)N[C@@H](CS)C(=O)O [NAC, N-Acetyl-L-cysteine] |  | 6250 µg/mL |  | 6250 µg/mL | 68% | > 100,000 µg/mL |  | 100,000 µg/mL | 345 ± 62 µm | 338 ± 85.7 µm | 332 ± 51.2 µm | up to 20% | 335 ± 23.1 µm
